“And” between values parts separate entries of the source, which are not always exact repeats. Equal entries are not always repeated.

For assay [1], the system named is mitochondria of Th9 cells. The assay can be described thus: Flow cytometry of mitochondrial membrane potential with TMRM (Figure 4N). It is filed as cell-based, mouse. As to the method: Mitochondrial mass and membrane potential were assessed using MitoTracker™ Deep Red FM (Thermo Fisher Scientific, catalog M22426) and TMRM (tetramethylrhodamine methyl ester; Macklin, catalog T868125), respectively, following the manufacturers’ protocols. Cells were incubated with the respective dyes, washed, and subjected to flow cytometry or fluorescence microscopy analysis. For ultrastructural assessment, mitochondrial number and diameter were quantified from high-resolution transmission electron microscopy (TEM) images using ImageJ software.
(In general: In flow cytometry, cells or beads pass a laser one at a time.)

In a further assay the test system is phosphorylated ZAP70. Briefly: Flow cytometry of phosphorylated ZAP70 in human Th9 cells (Figure 8F). In kind it is cell-based. As to conditions: result in words. As to the method:
For Th9 polarization, cultures were supplemented with IL-4 (10 ng/mL, PeproTech, catalog AF-200-04), TGF-β (1 ng/mL), and neutralizing anti–IFN-γ monoclonal antibody (10 μg/mL, clone B27, BioXcell, catalog BE0245). After 3 days of initial culture, cells were either collected for downstream assays or continued in extended culture with refreshed cytokines to maintain lineage commitment without antibodies. Th9 cells were collected at days 4, 5, and 6 for subsequent in vitro assays. For adoptive transfer studies, day 4–cultured Th9 cells were washed and prepared for intravenous injection.
Details regarding staining panels (human and mouse), reagents (including clones and catalog numbers), acquisition settings, compensation/controls, and analysis procedures are provided in Supplemental Methods.
MH9A4, Biolegend, Cat. No. 507605, PE/Cy7, clone MH9A4, Biolegend, Cat. No. […]
clone Mab11, Biolegend, Cat. No. 502908), Perforin (APC, clone dG9, Biolegend, Cat.
Flow cytometric acquisition was performed using a BD Fortessa or Cytek Aurora cytometer. Data were analyzed with FlowJo software (v10.8.1 or newer). Fluorescence compensation, isotype-matched controls, and fluorescence-minus-one (FMO) controls were applied as appropriate for multicolor panel validation.
Cells were washed twice with PBS and lysed in 1 × lysis buffer (NCM, Cat. No. […]

Turning to anteiso-C15 Leu7 surfactin [EpA], the TMRM in assay [1] (Figure 4N, individual replicates, (n = 5)) was 178315 and 162266 and 165932 and 168795 and 170537. For the same substance, the mitochondrial membrane potential entry in assay [1] (result in words) is listed as “elevated mitochondrial membrane potential”. Also, the “ZAP70 phosphorylation, human Th9” value with phosphorylated ZAP70 is “increased phosphorylation of ZAP70”.

Source of the values: paper PMC12867150, “A fungi-derived cyclic peptide enhances Th9-mediated antitumor immunity by targeting ZAP70 and SREBP1” (The Journal of Clinical Investigation, 2025).
